ChEMBL document CHEMBL1201862, “PubChem BioAssay data set” (2004)
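96-well plates; 48 h exposure; 5 concentrations. Endpoints by linear interpolation between flanking doses. Not reached: highest tested concentration assigned. At the GI50, growth is halved.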 Active and inactive are the calls of the source. No stated cut-off is given here; in the data, active = GI50 up to about 1.1 µM and inactive = higher.

How the values were obtained:
Test in all cases: DTP human tumour cell line panel, 48 h
NCI/ADR-RES = tested on: NCI/ADR-RES
ACHN = tested on: ACHN
MOLT-4 = tested on: MOLT-4
MDA-MB-435 = tested on: MDA-MB-435
OVCAR-5 = tested on: OVCAR-5
SNB-19 = tested on: SNB-19
UACC-257 = tested on: UACC-257
UACC-62 = tested on: UACC-62
786-0 = tested on: 786-0
SR = tested on: SR
MDA-N = tested on: MDA-N
TK-10 = tested on: TK-10
M14 = tested on: M14
U-251 = tested on: U-251
CAKI-1 = tested on: CAKI-1
HCC 2998 = tested on: HCC 2998
SW-620 = tested on: SW-620
HOP-62 = tested on: HOP-62
HT-29 = tested on: HT-29
NCI-H522 = tested on: NCI-H522

| SMILES | GI50 (NCI/ADR-RES) | GI50 (ACHN) | GI50 (MOLT-4) | GI50 (MDA-MB-435) | GI50 (OVCAR-5) | GI50 (SNB-19) | GI50 (UACC-257) | GI50 (UACC-62) | GI50 (786-0) | GI50 (SR) | GI50 (MDA-N) | GI50 (TK-10) | GI50 (M14) | GI50 (U-251) | GI50 (CAKI-1) | GI50 (HCC 2998) | GI50 (SW-620) | GI50 (HOP-62) | GI50 (HT-29) | GI50 (NCI-H522) |
| --- | --- | --- | --- | --- | --- | --- | --- | --- | --- | --- | --- | --- | --- | --- | --- | --- | --- | --- | --- | --- |
| [N-]=[N+]=Nc1c(C=O)c(=O)n(-c2ccccc2)c2ccccc12 | 23.7 µM (inactive) | 19 µM (inactive) | 2.63 µM (inactive) | 18.5 µM (inactive) | 55.8 µM (inactive) | 57 µM (inactive) | 22.9 µM (inactive) | 15 µM (inactive) | 18.5 µM (inactive) | 6.64 µM (inactive) | 37.8 µM (inactive) | 19.5 µM (inactive) | 18 µM (inactive) | 28.6 µM (inactive) | 14 µM (inactive) | 19.1 µM (inactive) | 2.51 µM (inactive) | 29.3 µM (inactive) | 23.1 µM (inactive) |  |
| CCCN(CCC)C(=O)c1c(Cl)c2cccnc2n2c(C)cnc12 | 50.4 µM (inactive) | > 100 µM (inactive) | 33.3 µM (inactive) | 27.2 µM (inactive) | > 100 µM (inactive) | > 100 µM (inactive) | 95.3 µM (inactive) | 52.7 µM (inactive) | > 100 µM (inactive) | 32.9 µM (inactive) | 23.6 µM (inactive) | > 100 µM (inactive) | 61.2 µM (inactive) |  | 22.9 µM (inactive) | 97.9 µM (inactive) | 23.2 µM (inactive) | > 100 µM (inactive) | > 100 µM (inactive) | > 100 µM (inactive) |
| Cc1ccc(S(=O)(=O)Oc2nc3ccccc3nc2OS(=O)(=O)c2ccc(C)cc2)cc1 | > 100 µM (inactive) | > 100 µM (inactive) | 71.3 µM (inactive) | > 100 µM (inactive) | > 100 µM (inactive) | > 100 µM (inactive) | > 100 µM (inactive) | > 100 µM (inactive) | > 100 µM (inactive) | 54.7 µM (inactive) | > 100 µM (inactive) | > 100 µM (inactive) | 33.7 µM (inactive) | > 100 µM (inactive) | 8.39 µM (inactive) | > 100 µM (inactive) | 25.9 µM (inactive) |  | > 100 µM (inactive) | 16.9 µM (inactive) |
| Cc1ccc(-c2cc(C(F)(F)F)nn2-c2ccc(S(N)(=O)=O)cc2)cc1 [CELECOXIB] | 16.2 µM (inactive) | 17.5 µM (inactive) | 17.3 µM (inactive) | 17.5 µM (inactive) | 19.7 µM (inactive) | 18 µM (inactive) | 19.7 µM (inactive) | 15.4 µM (inactive) | 37.1 µM (inactive) | 16.1 µM (inactive) | 17.1 µM (inactive) | 18.8 µM (inactive) | 67.9 µM (inactive) | 16.1 µM (inactive) | 19.6 µM (inactive) | 15.7 µM (inactive) | 16.9 µM (inactive) | 67.9 µM (inactive) | 16.5 µM (inactive) |  |
| Oc1ccc(/C=C/c2ccc3cccc(O)c3n2)cc1O | 0.493 µM (active) | 3.42 µM (inactive) | 0.973 µM (active) | 5.9 µM (inactive) | 16.1 µM (inactive) | 5.02 µM (inactive) | 10.5 µM (inactive) | 4.79 µM (inactive) | 3.24 µM (inactive) | 3.22 µM (inactive) | 5.41 µM (inactive) | 9.31 µM (inactive) | 2.69 µM (inactive) | 4.2 µM (inactive) | 4.98 µM (inactive) | 10.8 µM (inactive) | 4.24 µM (inactive) | 13.1 µM (inactive) | 14.7 µM (inactive) |  |
| O=[N+]([O-])c1ccc2c(c1)Sc1ccccc1N2 | 14.4 µM (inactive) | 64.1 µM (inactive) | 6.34 µM (inactive) | 3.72 µM (inactive) | > 100 µM (inactive) | 78.2 µM (inactive) | > 100 µM (inactive) |  | 64.3 µM (inactive) | 12 µM (inactive) | 6.12 µM (inactive) | > 100 µM (inactive) |  | 67.3 µM (inactive) | > 100 µM (inactive) | > 100 µM (inactive) | 43.9 µM (inactive) | 34.1 µM (inactive) | > 100 µM (inactive) | 6.73 µM (inactive) |
| O=C1C(=O)N(c2cccc(C(F)(F)F)c2)C(=S)N1c1ccccc1 | 31.8 µM (inactive) | 16.4 µM (inactive) | 38 µM (inactive) | 27.4 µM (inactive) | 30 µM (inactive) | 40.5 µM (inactive) | 25.8 µM (inactive) | 14.9 µM (inactive) | 33.3 µM (inactive) | 37.2 µM (inactive) | 25.5 µM (inactive) | 2.84 µM (inactive) |  | 31.6 µM (inactive) | 29.2 µM (inactive) | 42 µM (inactive) | 36.2 µM (inactive) | 34.2 µM (inactive) | 36.5 µM (inactive) | 6.44 µM (inactive) |
